DBAASP
In brackets after ≈: the same amount, converted by molar mass. Several values for one entry are separate records, joined by “and”; a condition that tells them apart may be missing. Identical values can stand only once. Each block holds one compound with its values, some of them ahead of it.

Legend:
Assay in all cases: ≥ marks a high value that may be exact or a test limit, other limits are often not marked, values filed in µg/mL are converted to µM
[1] = system: Mycobacterium tuberculosis
[2] = system: Mycobacterium tuberculosis H37Rv
[3] = system: Mycobacterium tuberculosis WXY
[4] = system: Mycobacterium tuberculosis FYX
[5] = system: Escherichia coli ATCC 25922
[6] = system: Mycobacterium tuberculosis CAS3
[7] = system: Bacillus subtilis IFO 3134
[8] = system: Pseudomonas aeruginosa IFO 12582
[9] = system: Escherichia coli IFO 12734
[10] = system: Staphylococcus aureus IFO 12732
[11] = system: Bacillus subtilis var. niger ATCC 9372
[12] = system: Escherichia coli K91BK
[13] = system: Bacillus anthracis Sterne 34F2
[14] = system: Burkholderia thailandensis
[15] = system: Pseudomonas aeruginosa CCARM 2109
[16] = system: Escherichia coli KCTC 1682
[17] = system: Staphylococcus aureus CCARM 3001
[18] = system: Bacillus subtilis KCTC 3068
[19] = system: Pseudomonas aeruginosa KCTC 1637
[20] = system: Staphylococcus aureus KCTC 1621
[21] = system: Pseudomonas aeruginosa CCARM 2095
[22] = system: Staphylococcus aureus CCARM 3543
[23] = system: Staphylococcus epidermidis KCTC 1917
[24] = system: Salmonella typhimurium KCTC 1926
[25] = system: Staphylococcus aureus CCARM 3095
[26] = system: Enterococcus faecium ATCC 51559
[27] = system: Staphylococcus aureus CCARM 3090
[28] = system: Enterococcus faecalis ATCC 29212
[29] = system: Staphylococcus epidermidis
[30] = system: Staphylococcus aureus ATCC 25923
[31] = system: Pseudomonas aeruginosa K799
[32] = system: Escherichia coli UB1005
[33] = system: Salmonella enterica subsp. enterica serovar Typhimurium ATCC 14028s
[34] = system: Listeria monocytogenes
[35] = system: Pseudomonas aeruginosa ATCC 27853
[36] = system: Salmonella enterica subsp. enterica serovar Typhimurium ATCC 14028
[37] = system: Escherichia coli ML-35
[38] = system: Bacillus megaterium

MIC [1]: 14.8 µM (≈ 28 µg/mL)
MIC [2]: 11.6 µM and 19.8 µM
MIC [3]: ≥ 39.7 µM
MIC [4]: 19.8 µM (≈ 37.5 µg/mL)
MIC [5]: > 25 µM
MIC [6]: ≥ 39.7 µM
Structure (SMILES): CC(C)C[C@H](NC(=O)[C@H](CCCCN)NC(=O)[C@H](CCCCN)NC(=O)[C@H](CO)NC(=O)[C@H](Cc1ccccc1)NC(=O)[C@H](CCCCN)NC(=O)CNC(=O)[C@@H]1CCCN1C(=O)CNC(=O)[C@H](CCCCN)NC(=O)[C@H](CC(C)C)NC(=O)CNC(=O)[C@H](CCCCN)NC(=O)[C@H](CC(C)C)NC(=O)CNC(=O)[C@H](Cc1c[nH]c2ccccc12)NC(=O)[C@@H](N)Cc1ccccc1)C(=O)O [FWGLKGLKGPGKFSKKL]

MIC [7]: ≥ 64 µM
MIC [8]: ≥ 64 µM
MIC [9]: ≥ 64 µM
MIC [10]: ≥ 64 µM
Structure (SMILES): CC[C@H](C)[C@H](NC(=O)[C@H](C)NC(=O)[C@@H]1CCCN1C(=O)[C@@H](NC(=O)[C@@H](NC(=O)[C@H](Cc1cnc[nH]1)NC(=O)[C@H](C)NC(=O)[C@H](C)NC(=O)[C@@H](NC(=O)[C@H](CCCCN)NC(=O)[C@H](C)NC(=O)[C@H](CC(C)C)NC(=O)[C@@H](NC(=O)CNC(=O)[C@H](Cc1ccccc1)NC(=O)CN)C(C)C)C(C)C)C(C)C)C(C)C)C(=O)N[C@@H](C)C(=O)N[C@@H](CCC(=O)O)C(=O)N[C@@H](Cc1cnc[nH]1)C(=O)N[C@@H](Cc1ccccc1)C(N)=O [GFGVLAKVAAHVVPAIAEHF]

MIC [7]: ≥ 64 µM
MIC [8]: ≥ 64 µM
MIC [9]: ≥ 64 µM
MIC [10]: ≥ 64 µM
Structure (SMILES): CC[C@H](C)[C@H](NC(=O)[C@H](C)NC(=O)[C@@H]1CCCN1C(=O)[C@@H](NC(=O)[C@@H](NC(=O)[C@H](Cc1cnc[nH]1)NC(=O)[C@H](C)NC(=O)[C@H](C)NC(=O)[C@@H](NC(=O)[C@H](CCCCN)NC(=O)[C@H](C)NC(=O)[C@H](CC(C)C)NC(=O)[C@@H](NC(=O)CNC(=O)[C@H](Cc1ccccc1)NC(=O)[C@H](CC(C)C)NC(=O)CN)C(C)C)C(C)C)C(C)C)C(C)C)C(=O)N[C@@H](C)C(=O)N[C@@H](CCC(=O)O)C(=O)N[C@@H](Cc1cnc[nH]1)C(N)=O [GLFGVLAKVAAHVVPAIAEH]

Structure (SMILES): CC[C@H](C)[C@H](NC(=O)[C@H](CCCCN)NC(=O)[C@H](CCCN=C(N)N)NC(=O)CNC(=O)[C@H](CC(C)C)NC(=O)[C@H](CCCN=C(N)N)NC(=O)[C@H](CCCN=C(N)N)NC(=O)[C@H](CC(C)C)NC(=O)CNC(=O)[C@H](CCCN=C(N)N)NC(C)=O)C(=O)N[C@@H](C)C(=O)N[C@@H](Cc1cnc[nH]1)C(=O)NCC(=O)N[C@H](C(=O)N[C@@H](CCCCN)C(=O)N[C@@H](CCCCN)C(=O)N[C@@H](Cc1ccc(O)cc1)C(=O)NCC(=O)N1CCC[C@H]1C(=O)N[C@H](C(=O)N[C@H](C(=O)N[C@@H](CC(C)C)C(=O)N[C@@H](CCCN=C(N)N)C(=O)N[C@H](C(=O)N[C@H](C(=O)N[C@@H](CCCN=C(N)N)C(=O)N[C@H](C(=O)N[C@@H](C)C(=O)N[C@H](C(N)=O)[C@@H](C)O)[C@@H](C)O)[C@@H](C)CC)[C@@H](C)CC)C(C)C)[C@@H](C)O)C(C)C [RGLRRLGRKIAHGVKKYGPTVLRIIRTAT]
MIC [11]: 3.13 µM (≈ 10.4 µg/mL)
MIC [12]: ≥ 36.1 µM
MIC [13]: 2.51 µM (≈ 8.36 µg/mL)
MIC [14]: ≥ 100 µM

MIC [15]: 16 µM (≈ 24.4 µg/mL)
MIC [16]: 8 µM (≈ 12.2 µg/mL)
MIC [17]: 4 µM (≈ 6.1 µg/mL)
MIC [18]: 8 µM (≈ 12.2 µg/mL)
MIC [19]: 8 µM (≈ 12.2 µg/mL)
MIC [20]: 4 µM (≈ 6.1 µg/mL)
MIC [21]: 8 µM (≈ 12.2 µg/mL)
MIC [22]: 4 µM (≈ 6.1 µg/mL)
MIC [23]: 8 µM (≈ 12.2 µg/mL)
MIC [24]: 4 µM (≈ 6.1 µg/mL)
Structure (SMILES): CC(C)C[C@H](NC(=O)[C@H](CC(C)C)NC(=O)[C@H](Cc1c[nH]c2ccccc12)NC(=O)[C@H](CCCCN)NC(=O)[C@H](CC(C)C)NC(=O)[C@H](Cc1c[nH]c2ccccc12)NC(=O)[C@H](CC(C)C)NC(=O)[C@H](CCCCN)NC(=O)[C@H](Cc1c[nH]c2ccccc12)NC(=O)[C@H](CC(C)C)NC(=O)[C@@H](N)CCCCN)C(N)=O [KLWKLWLKWLL]

MIC [15]: ≥ 64 µM
MIC [18]: 8 µM and 4 µM
MIC [19]: 4 µM and 8 µM
MIC [21]: 4 µM (≈ 6.32 µg/mL)
MIC [25]: ≥ 64 µM
MIC [26]: ≥ 64 µM
MIC [27]: ≥ 64 µM
Structure (SMILES): CC[C@H](C)[C@H](NC(=O)[C@H](CC(C)C)NC(=O)[C@H](CCCCN)NC(=O)[C@@H](NC(=O)[C@@H](NC(=O)[C@H](CCCN=C(N)N)NC(=O)[C@@H](N)CCCCN)[C@@H](C)CC)C(C)C)C(=O)N[C@@H](CCCCN)C(=O)N[C@@H](CCCCN)C(=O)N[C@@H](Cc1c[nH]c2ccccc12)C(=O)N[C@@H](CC(C)C)C(=O)N[C@@H](CCCN=C(N)N)C(N)=O [KRIVKLIKKWLR]

MIC [28]: > 21.8 µM
MIC [29]: 21.8 µM (≈ 32 µg/mL)
MIC [30]: 21.8 µM (≈ 32 µg/mL)
MIC [31]: 21.8 µM (≈ 32 µg/mL)
MIC [32]: 2.72 µM (≈ 3.99 µg/mL)
MIC [33]: 10.9 µM (≈ 16 µg/mL)
MIC [34]: 10.9 µM (≈ 16 µg/mL)
Structure (SMILES): CC[C@H](C)[C@@H]1NC(=O)[C@H](C(C)C)NC(=O)[C@H](C(C)C)NC(=O)[C@H]([C@@H](C)CC)NC(=O)[C@@H]2CCCN2C(=O)[C@@H](NC(=O)[C@H](CCCN=C(N)N)NC(=O)[C@@H](N)CCCN=C(N)N)CSSC[C@@H](C(=O)N[C@@H](CCCN=C(N)N)C(=O)O)NC(=O)[C@H](C(C)C)NC(=O)[C@H](CCCN=C(N)N)NC1=O [RRCPIVVIRVCR]

MIC [35]: 2 µM (≈ 4.82 µg/mL)
MIC [36]: 0.5 µM (≈ 1.21 µg/mL)
MIC [37]: 0.5 µM (≈ 1.21 µg/mL)
MIC [38]: 2 µM (≈ 4.82 µg/mL)
MIC [30]: 2 µM (≈ 4.82 µg/mL)
MIC [5]: 2 µM (≈ 4.82 µg/mL)
Structure (SMILES): CC[C@H](C)[C@H](NC(=O)[C@H](CCCCN)NC(=O)[C@H](CCCCN)NC(=O)[C@H](CC(C)C)NC(=O)[C@H](C)NC(=O)[C@H](CCC(=O)O)NC(=O)[C@H](CCCCN)NC(=O)[C@@H](NC(=O)[C@H](CCCCN)NC(=O)[C@H](CC(N)=O)NC(=O)[C@H](CCCN=C(N)N)NC(=O)[C@H](Cc1ccccc1)NC(=O)[C@H](CCCCN)NC(=O)[C@H](CCCN=C(N)N)NC(=O)[C@H](CC(C)C)NC(=O)[C@H](C)NC(=O)[C@H](CCCCN)NC(=O)[C@H](CCCN=C(N)N)NC(=O)[C@H](CC(C)C)NC(=O)CN)[C@@H](C)CC)C(=O)O [GLRKALRKFRNKIKEALKKI]
